Test results reported in ChEMBL document CHEMBL1124722, “Synthesis and anticonvulsant activity of 2-benzylglutarimides” (J Med Chem, 1990).
The source made the active and inactive calls. The calls are words filed in the database; no cut-off is given here.

How the values were obtained:
[1] = Protective index was calculated (TD50/ED50) in MES assay in mice after oral administration; format: functional
[2] = Ratio of LD50/HD50 was determined; format: functional
Mus musculus [3] = species on record: Mus musculus; assay: Median lethal dose was measured after 24 hr; format: functional
[4] = Protective index was calculated (TD50/ED50) in scMET assay in mice after oral administration; format: functional
Mus musculus [5] = assay: The effective dose of compound was tested against subcutaneous administered Metrazol induced seizures after intraperitoneal administration.; format: functional
[6] = Protective index was calculated (TD50/ED50) in MES assay in mice after intraperitoneal administration; format: functional
Mus musculus [7] = species on record: Mus musculus; assay: Time of peak effect toxicity against maximal electroshock induced seizures; format: organism-based; details: in vivo
Mus musculus [8] = assay: Anticonvulsant activity against subcutaneous picrotoxin induced seizures after intraperitoneal administration; format: functional
Mus musculus [9] = species on record: Mus musculus; assay: Median hypnotic dose by loss of righting reflex; format: functional
[10] = The cytotoxicity after intraperitoneal administration; format: organism-based; details: mouse, in vivo, ip
Rattus norvegicus [11] = assay: The effective dose of compound was tested against maximal electroshock induced seizures after oral administration in rat; format: functional
Mus musculus [12] = assay: Anticonvulsant activity against subcutaneous administered Metrazol induced seizures (scMET) after 0.5 hr at 30 mg/kg; Active; format: functional, organism-based; parameters: dose 30 mg/kg
Mus musculus [13] = assay: Anticonvulsant activity against maximal electroshock induced seizures (MES) after 0.5 hr at 300 mg/kg; Active; format: functional, organism-based; parameters: dose 300 mg/kg
Mus musculus [14] = assay: The effective dose of compound (given orally) was tested against subcutaneous administered Metrazol induced seizures in mice; format: functional
Mus musculus [15] = assay: The Neurologic toxicity by measuring rotarod test after 4 hr; No toxicity up to 300 mg/kg; format: organism-based; parameters: dose 300 mg/kg; details: in vivo
Rattus norvegicus [16] = assay: The effective dose of compound (given orally) was tested against subcutaneous administered Metrazol induced seizures in rat; format: functional
Mus musculus [17] = assay: The compound was tested for anticonvulsant activity against (subcutaneous administered) strychnine induced seizures after intraperitoneal administration; format: functional
Mus musculus [18] = assay: Anticonvulsant activity against maximal electroshock induced seizures (MES) after 4 hr at 300 mg/kg; Active; format: functional, organism-based; parameters: dose 300 mg/kg
Mus musculus [19] = assay: The compound was tested for anticonvulsant activity against (subcutaneous administered) Metrazol induced seizures after intraperitoneal administration; format: functional
Mus musculus [20] = assay: The compound was tested for anticonvulsant activity against (subcutaneous administered) bicuculline induced seizures after intraperitoneal administration; format: functional
Mus musculus [21] = assay: Anticonvulsant activity against subcutaneous administered Metrazol induced seizures (scMET) after 4 hr at 300 mg/kg; Active; format: functional, organism-based; parameters: dose 300 mg/kg
Mus musculus [22] = assay: The Neurologic toxicity by measuring rotarod test after 0.5 h; No toxicity up to 300 mg/kg; format: organism-based; parameters: dose 300 mg/kg; details: in vivo
[23] = Protective index was calculated (TD50/ED50) in scMET assay in mice after intraperitoneal administration; format: functional
Mus musculus [24] = assay: The effective dose of compound was tested against maximal electroshock induced seizures after intraperitoneal administration; format: functional; details: ip
[25] = Protective index was calculated (TD50/ED50) in MES assay in rat after oral administration; format: functional
Mus musculus [26] = species on record: Mus musculus; assay: Time of peak effect activity against maximal electroshock induced seizures; format: functional
[27] = The cytotoxicity (given orally) […] in rat; format: organism-based; details: in vivo
[28] = Protective index was calculated (TD50/ED50) in scMET assay in rat after oral administration; format: functional
Mus musculus [29] = assay: The effective dose of compound was tested against maximal electroshock induced seizures after oral administration in mice; format: functional
[30] = The cytotoxicity (given orally) […] in mice; format: organism-based; details: mouse, in vivo
Rattus norvegicus [31] = assay: The effective dose of compound was tested against subcutaneous administered Metrazol induced seizures in rat; Not effective; format: functional, organism-based
Mus musculus [32] = assay: The effective dose of compound was tested against subcutaneous administered Metrazol induced seizures after intraperitoneal administration; Not effective; format: functional, organism-based
Mus musculus [33] = assay: The compound was tested for anticonvulsant activity against (subcutaneous administered) bicuculline induced seizures after intraperitoneal administration; Protected at 100 mg/ kg; format: functional, organism-based; parameters: dose 100 mg/ kg
Mus musculus [34] = assay: The compound was tested for anticonvulsant activity against (subcutaneous administered) Metrazol induced seizures after intraperitoneal administration; No protection up to 100 mg/kg; format: functional, organism-based; parameters: dose 100 mg/kg
in vivo = details: rat, ip
Mus musculus [35] = assay: Anticonvulsant activity against maximal electroshock induced seizures after 4 hr; Not active up to 300 mg/kg.; format: functional, organism-based; parameters: dose 300 mg/kg
Mus musculus [36] = assay: Anticonvulsant activity against maximal electroshock induced seizures (MES) after 0.5 h; Not active up to 300 mg/kg; format: functional, organism-based; parameters: dose 300 mg/kg
[37] = Protective index was calculated (TD50/ED50) in scMet assay in mice after intraperitoneal administration; format: functional
Mus musculus [38] = assay: The effective dose of compound was tested against maximal electroshock induced seizures after intraperitoneal administration; Not active up to 300 mg/kg; format: functional, organism-based; parameters: dose 300 mg/kg
Mus musculus [39] = species on record: Mus musculus; assay: Time of peak effect was determined for activity in MES; format: functional; parameters: unit not given here
Mus musculus [40] = assay: Anticonvulsant activity against subcutaneous administered Metrazol induced seizures (scMET) after 0.5 hr at 300 mg/kg; Active; format: functional, organism-based; parameters: dose 300 mg/kg
Mus musculus [41] = assay: The effective dose of compound was tested against subcutaneous administered Metrazol induced seizures after intraperitoneal administration; format: functional
Mus musculus [42] = assay: The Neurologic toxicity by measuring rotarod after 4 hr; No toxicity up to 300 mg/kg; format: organism-based; parameters: dose 300 mg/kg; details: in vivo
Mus musculus [43] = assay: Anticonvulsant activity against subcutaneous administered Metrazol induced seizures (scMET) after 0.5 hr; Not active up to 300 mg/kg; format: functional, organism-based; parameters: dose 300 mg/kg
Mus musculus [44] = species on record: Mus musculus; assay: Median hypnotic dose by loss of righting reflex.; format: functional
[45] = Median lethal dose was measured after 24 hr.; format: organism-based; details: mouse, in vivo
Mus musculus [46] = species on record: Mus musculus; assay: Time of peak effect was determined for toxicity; format: functional
Rattus norvegicus [47] = assay: The cytotoxicity after intraperitoneal administration in rat.; format: functional; details: ip

For `O=C1CCC(Cc2ccc(Cl)cc2)C(=O)N1` (centres undefined), the Ratio [1] was greater than 5.18, the Ratio [2] was greater than 1.87 and the LD50 (Mus musculus [3]) was greater than 2400 mg/kg. It also gave a Ratio [4] greater than 10.95, an ED50 (Mus musculus [5]) of 72.8 mg/kg and a Ratio [6] of 8.95. For the same compound, the TPE (Mus musculus [7]) was 1, the ED50 (Mus musculus [8]) was 158 mg/kg and the HD50 (Mus musculus [9]) was 1282.47 mg/kg. For the same compound, the TD50 [10] was 1220 mg/kg, the ED50 (Rattus norvegicus [11]) was 58.3 mg/kg and the Activity (Mus musculus [12]) was “Active”. The Activity (Mus musculus [13]) was “Active”, the ED50 (Mus musculus [14]) was 274 mg/kg and the Toxicity (Mus musculus [15]) was “No toxicity up to 300 mg/kg”. The ED50 (Rattus norvegicus [16]) was 36.4 mg/kg, the ED50 (Mus musculus [17]) was 232 mg/kg and the Activity (Mus musculus [18]) was “Active”. For the same compound, the ED50 (Mus musculus [19]) was 72.8 mg/kg, the ED50 (Mus musculus [20]) was 249 mg/kg and the Activity (Mus musculus [21]) was “Active”. For the same compound, the Toxicity (Mus musculus [22]) was “No toxicity up to 300 mg/kg”, the Ratio [23] was 16.82 and the ED50 (Mus musculus [24]) was 137 mg/kg. The Ratio [25] was 1.17, the TPE (Mus musculus [26]) was 0.5 and the TD50 [27] was 68.2 mg/kg. The Ratio [28] was 1.87, the ED50 (Mus musculus [29]) was 579 mg/kg and the TD50 [30] was greater than 3000 mg/kg.

For `NC(=O)N1c2ccccc2C=Cc2ccccc21` [CARBAMAZEPINE], the LD50 (Mus musculus [3]) was 629 mg/kg, the ED50 (Rattus norvegicus [31]) was “inactive” and the TPE (Mus musculus [7]) was 0.25. The HD50 (Mus musculus [9]) was 172.24 mg/kg, the ED50 (Rattus norvegicus [11]) was 8.5 mg/kg and the ED50 (Mus musculus [32]) was “inactive”. For the same compound, the ED50 (Mus musculus [33]) was “Active”, the ED50 (Mus musculus [34]) was “inactive” and the TD50 (in vivo) was 813 mg/kg. It also gave a TPE (Mus musculus [26]) of 0.25.

For `O=C1CCC(Cc2ccc(I)cc2)C(=O)N1` (centres undefined), the Activity (Mus musculus [35]) was “inactive”, the Activity (Mus musculus [36]) was “inactive” and the TD50 [10] was greater than 1050 mg/kg. For the same compound, the Ratio [37] was greater than 12.04, the Toxicity (Mus musculus [15]) was “No toxicity up to 300 mg/kg” and the ED50 (Mus musculus [38]) was “Not active up to 300 mg/kg”. The TPE (Mus musculus [39]) was 1, the Activity (Mus musculus [21]) was “Active” and the Toxicity (Mus musculus [22]) was “No toxicity up to 300 mg/kg”. The Activity (Mus musculus [40]) was “Active” and the ED50 (Mus musculus [41]) was 87.2 mg/kg.

In the case of `COc1ccc(CC2CCC(=O)NC2=O)cc1` (centres undefined), the Toxicity (Mus musculus [42]) is reported as “No toxicity up to 300 mg/kg”, the Activity (Mus musculus [35]) is reported as “inactive” and the Activity (Mus musculus [36]) is reported as “inactive”. The Activity (Mus musculus [43]) was “inactive”, the Activity (Mus musculus [21]) was “Active” and the Toxicity (Mus musculus [22]) was “No toxicity up to 300 mg/kg”.

`CCC1(c2ccccc2)C(=O)NC(=O)NC1=O` [PHENOBARBITAL] showed an HD50 (Mus musculus [44]) of 135.45 mg/kg, a Time of peak effect (Mus musculus [7]) of 0.5 h and an LD50 at 24 h [45] of 265 mg/kg. The TPE (Mus musculus [39]) was 1, the Activity (Mus musculus [26]) was 1 h and the TPE (Mus musculus [46]) was 0.5. For the same compound, the ED50 (Rattus norvegicus [47]) was 61.1 mg/kg.
